Measured values from patent US4536578A, “1-[3-(6-Fluoro-1,2-benzisoxazol-3-yl)propyl]-4-(substituted)piperazines” (Hoechst-Roussel Pharmaceuticals Inc., priority 1982, dated 1985).
Where a name gives a salt, the structure may show the parent alone. Read-outs that look alike come from different tables or passages of the source.

Legend:
[1] = test system: apomorphine-induced climbing; test: climbing mice assay (apomorphine-induced climbing); format: in vivo; conditions: intraperitoneal 30 min before apomorphine 1.5 mg/kg s.c.
Protocol: The subject CK-1 male mice (23-27 grams) are group-housed under standard laboratory conditions. The mice are individually placed in wire mesh stick cages (4"×4" by 10") and are allowed one hour for adaptation and exploration of the new environment.
For evaluation of climbing, 3 readings are taken at 10, 20 and 30 minutes after apomorphine administration according to the following scale:
Mice consistently climbing before the injection of apormorphine will be discarded.
With full-developed apomorphine climbing, the animals are hanging onto the cage walls, rather motionless, over longer periods of time. By contrast, climbs due to mere motor stimulation usually only last a few seconds.
The climbing scores are individually totaled (maximal score: 6 per mouse over 3 readings) and the total score of the control group (vehicle intraperitoneally--apomorphine subcutaneously) is set to 100%.

[2] = test system: spontaneous hypertensive rat; test: antihypertensive activity in the spontaneous hypertensive rat, indirect tail cuff method; format: in vivo; conditions: 50 mg/kg of body wt, intraperitoneal, 3 days, measured on third day, group of 4 rats
Protocol: According to this procedure, the test compound is administered intraperitoneally to a group of 4 rats for 3 days. The decrease in blood pressure is measured on the third day of administration.

[3] = test system: phenyl-para-quinone induced writhing; test: phenyl-para-quinone writhing assay in mice (analgesia); format: in vivo; conditions: Mus musculus, sc, read-out: Analgesic Activity ED50 (dose at which 50% of the phenyl-para-quinone induced writhing is inhibited)
From the text: Exptl. Biol. Med., 95, 729 (1957)]. Presented in Table I is the analgesic effect of some of the compounds of the invention, expressed as the subcutaneous dose at which 50% of the phenyl-para-quinone induced writhing is inhibited in the animals, i.e., the ED50.

conditioned avoidance = test: Sidman Avoidance Paradigm in squirrel monkeys; format: in vivo, squirrel monkeys (Saimiri sciureus); conditions: Primates
From the text: The subjects are male squirrel monkeys (Saimiri sciureus). They are housed in individual home cages in the animal quarters for at least six weeks prior to training. When they are not in the test chambers, the subjects are maintained in their home cages with water available ad libitum and food available twice daily.
The apparatus consists of test cages (BRS/LVE) with a single lever and house-light. This is enclosed in a sound-attenuating chamber (BRS/LVE) with fan and the chambers are in an isolated room equipped with a speaker emitting a white-noise auditory background. The test cages have a grid floor of steel bars which are attached to a scrambled shock source (Coulbourn Instruments). The house-lights, shockers and response levers are controlled by BRS/LVE electromechanical timer and controls. The records of responses and shocks are recorded on Coulbourn print-out counters and Gerbrands cumulative recorders.
The monkeys are trained to avoid an unsignaled shock by repetitive lever-pressing responses. A shock (1.0 mA for 0.5 seconds) is delivered to the grid floor every 20 seconds if no responses are made (shock-shock interval of 20 seconds: SS-20"). A lever-press (response) will delay the oncoming shock for 20 seconds (Response-Shock interval of 20 seconds: RS-20").
Every 15 minutes the total number of shocks received and the total number of responses made are accumulated and constitute the basic data. The animals are trained until they maintain a stable response-rate and are receiving no more than 50 shocks per 4 hour test session. After reaching these criteria of performance, experimental compounds are administered and their effects on the performance of this learned avoidance behavior are evaluated.
The drug's effect on performance of each animal is compared to the performance data generated in the previous non-drug session. Each animal thereby serves as its own control. The basic measures of performance during a specific time interval, responses and shocks, are used for evaluation. Responses are reported both as totals and as percent of control responses. Shocks are reported as totals and as shock-avoided (SHA) as percent of control. This latter measure is computed by subtracting the number of shocks received from the total number of possible shocks if no responses are made.
However, an ED50 may be estimated during a representative time of peak activity.

[4] = test system: extrapyramidal symptomatology; conditions: monkey, in vivo, po
Protocol: Adult male squirrel monkeys (Saimiri sciurens) are housed in individual home cages and fed twice daily with water available "ad libitum" when they are not in the test chambers.
On the test day, drugs are administered by oral intubation immediately prior to testing in volumes of 1.0 cc/kg of body weight. The compounds are dissolved in distilled water or suspended with the addition of one drop of Tween-80 per 10 cc of solution.
After dosing, the monkeys are placed in observation chambers in an isolated room. Two experienced investigators observe the monkeys for dyskinetic symptomatology at 2, 4 and 6 hours postdose. They score the monkeys for the following specific dyskinetic symptomatology:
Circling--when the monkey rapidly circles the cage floor
"Duck walk"--when the monkey walks in a seated position with arms curled and held tightly to his side
Limb extension--an abnormal, prolonged extension of one or more limbs, similar to but of longer duration than a stretching motion
Pushing--the monkey will push against the cage wall with his head or body, frequently at the end of a circling episode
Writhing--slow, writhing movements of the whole body frequently in conjunction with a pushing episode
Oral dyskinesias--chewing, gnawing and abnormal tongue protrusions
The following scoring index is used in order to quantify the severity of symptoms:

[5] = squirrel monkeys, oral intubation immediately prior to testing, avoidance response, read-out: Antipsychotic Activity, Avoidance Response ED50
[6] = squirrel monkeys, oral intubation immediately prior to testing, escape response, read-out: Antipsychotic Activity, Escape Response ED50

With `Fc1ccc2c(CCCN3CCN(c4ccccc4)CC3)noc2c1.O=C(O)C(=O)O` [Example 2, 1-[3-(6-Fluoro-1,2-benzisoxazol-3-yl)propyl]-4-phenylpiperazine oxalate] the “Antipsychotic Activity (% decrease in climbing score)” value ([1]; dose 10 mg/kg of body wt) was 31%, the “Blood Pressure Decrease (mean arterial blood pressure)” value (“Blood Pressure Decrease” for short) [2] was 38 mm/mercury and the ED50 ([3]; mice, subcutaneous) was 1.8 mg/kg.
Work on `CCC(=O)O[C@](Cc1ccccc1)(c1ccccc1)[C@H](C)CN(C)C` [propoxyphene, reference compound] yielded an ED50 [3] of 3.9 mg/kg.
For `Cl.Fc1ccc2c(CCCN3CCN(c4ccccc4Cl)CC3)noc2c1` [Example 4, 4-(2-Chlorophenyl)-1-[3-(6-fluoro-1,2-benzisoxazol-3-yl)propyl]piperazine hydrochloride], the “Blood Pressure Decrease” value [2] was 55 mm/mercury.
With `Cl.Cl.Fc1ccc2c(CCCN3CCN(c4ccccn4)CC3)noc2c1` [Example 10, 1-[3-(6-Fluoro-1,2-benzisoxazol-3-yl)propyl]-4-(2-pyridyl)piperazine dihydrochloride] the “Antipsychotic Activity (% decrease in climbing score)” value ([1]; dose 10 mg/kg of body wt) was 31%, the “Blood Pressure Decrease” value [2] was 66 mm/mercury and the ED50 ([3]; mice, subcutaneous) was 0.8 mg/kg.
With `Fc1ccc(N2CCN(CCCc3noc4cc(F)ccc34)CC2)cc1.O=C(O)C(=O)O` [Example 3, 1-[3-(6-Fluoro-1,2-benzisoxazol-3-yl)propyl]-4-(4-fluorophenyl)piperazine oxalate] the “Blood Pressure Decrease” value [2] was 33 mm/mercury.
`Cl.Fc1ccc2c(CCCN3CCN(c4cccc(C(F)(F)F)c4)CC3)noc2c1` [Example 5, 1-[3-(6-Fluoro-1,2-benzisoxazol-3-yl)propyl]-4-(3-trifluoromethylphenyl)piperazine hydrochloride] was tested, and the “Blood Pressure Decrease” value [2] was 66 mm/mercury.
In the case of `Cc1ccccc1N1CCN(CCCc2noc3cc(F)ccc23)CC1` [Example 6, 1-[3-(6-Fluoro-1,2-benzisoxazol-3-yl)propyl]-4-(2-methylphenylpiperazine oxalate], the “Blood Pressure Decrease” value [2] is reported as 33 mm/mercury.
With `O=C(CCCN1CCC(O)(c2ccc(Cl)cc2)CC1)c1ccc(F)cc1` [haloperidol] the “Antipsychotic Activity (% decrease in climbing score)” value ([1]; dose 0.11 mg/kg of body wt) was 50%, the ED50 (conditioned avoidance; po, read-out: Antipsychotic Activity, Avoidance Response ED50) was 1.21 mg/kg and the ED50 (conditioned avoidance; po, read-out: Antipsychotic Activity, Escape Response ED50) was 1.27 mg/kg. For the same compound, the ED50 (conditioned avoidance; po, read-out: ED50 value in the Sidman Avoidance Paradigm in squirrel monkeys (footnote * to Table V)) was 1.3 mg/kg, the “% Monkeys showing extrapyramidal symptoms” value ([4]; 0.625 mg/kg) was 33% and the “% Monkeys showing extrapyramidal symptoms” value ([4]; 1.3 mg/kg) was 100%.
`COc1ccccc1N1CCN(CCCc2noc3cc(F)ccc23)CC1` [Example 1, 1-[3-(6-Fluoro-1,2-benzisoxazol-3-yl)propyl]-4-(2-methoxyphenyl)piperazine dihydrochloride] was tested, and the “Antipsychotic Activity (% decrease in climbing score)” value ([1]; dose 4.1 mg/kg of body wt) was 50%, the ED50 (conditioned avoidance; [5]) was 2.9 mg/kg and the ED50 (conditioned avoidance; [6]) was 4.8 mg/kg. The ED50 (conditioned avoidance; squirrel monkeys, oral, printed as dose with * in Table V, read-out: ED50 value in the Sidman Avoidance Paradigm in squirrel monkeys (footnote * to Table V)) was 3.5 mg/kg, the “% Monkeys showing extrapyramidal symptoms” value ([4]; 3.5 mg/kg) was 0% and the “% Monkeys showing extrapyramidal symptoms” value ([4]; 5 mg/kg) was 0%. The “% Monkeys showing extrapyramidal symptoms” value ([4]; 10 mg/kg) was 66% and the ED50 ([3]; mice, subcutaneous) was 5.2 mg/kg.
For `N=C(N)NCCN1CCCCCCC1` [guanethidine, reference compound], the “Blood Pressure Decrease” value [2] was 20 mm/mercury.
Compound `CC(C)=CCN1CCC2(C)c3cc(O)ccc3CC1C2C` (centres unmarked) [pentazocine, reference compound] has an ED50 [3] of 1.3 mg/kg.
In the case of `CSc1ccc2c(c1)N(CCC1CCCCN1C)c1ccccc1S2` (centres unmarked) [thioridazine], the “Antipsychotic Activity (% decrease in climbing score)” value ([1]; dose 3.5 mg/kg of body wt) is reported as 50%, the ED50 (conditioned avoidance; [5]) is reported as 2.6 mg/kg and the ED50 (conditioned avoidance; [6]) is reported as 3.5 mg/kg. For the same compound, the “% Monkeys showing extrapyramidal symptoms” value ([4]; 3.5 mg/kg) was 100% and the “% Monkeys showing extrapyramidal symptoms” value ([4]; 7 mg/kg) was 100%.
